Measurements published in ChEMBL document CHEMBL1139731, “Identification of non-furan containing A2A antagonists using database mining and molecular similarity approaches” (Bioorg Med Chem Lett, 2006).

Columns and labels:
[1] = biological target: T1, Adenosine receptor A1 (Homo sapiens, UniProt P30542); assay: Displacement of [3H]DPCPX from recombinant adenosine A1 receptor
T1 sequence (P30542 whole entry): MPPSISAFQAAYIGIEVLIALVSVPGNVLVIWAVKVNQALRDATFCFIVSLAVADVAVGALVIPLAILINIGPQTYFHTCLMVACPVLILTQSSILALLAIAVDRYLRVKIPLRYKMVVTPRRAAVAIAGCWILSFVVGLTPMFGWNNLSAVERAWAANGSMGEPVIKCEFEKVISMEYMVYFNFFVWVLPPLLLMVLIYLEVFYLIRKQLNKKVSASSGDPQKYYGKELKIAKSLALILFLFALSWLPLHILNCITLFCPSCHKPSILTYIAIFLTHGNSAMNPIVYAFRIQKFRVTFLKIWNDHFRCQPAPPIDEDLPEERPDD

[2] = biological target: Adenosine receptor A2a (Homo sapiens, UniProt P29274); assay: Displacement of [3H]CGS21680 from human recombinant adenosine A2A receptor
Adenosine receptor A2a, sequence (P29274 whole entry): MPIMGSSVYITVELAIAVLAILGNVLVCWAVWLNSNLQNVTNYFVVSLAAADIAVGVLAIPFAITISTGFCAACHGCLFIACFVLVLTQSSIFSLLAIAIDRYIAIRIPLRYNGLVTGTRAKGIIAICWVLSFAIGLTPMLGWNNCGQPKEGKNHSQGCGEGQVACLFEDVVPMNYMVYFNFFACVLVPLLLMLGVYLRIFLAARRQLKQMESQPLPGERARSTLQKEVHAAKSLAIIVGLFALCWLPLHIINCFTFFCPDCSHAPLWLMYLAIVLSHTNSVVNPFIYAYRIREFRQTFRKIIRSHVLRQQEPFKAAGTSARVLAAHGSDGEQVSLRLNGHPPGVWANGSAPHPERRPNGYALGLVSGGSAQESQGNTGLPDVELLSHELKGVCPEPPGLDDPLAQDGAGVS

## N#Cc1c(-c2ccc(F)cc2)cc(-c2ccccc2)nc1N
[1]
  Ki: 59 nM (antagonist)
[2]
  Ki: 87 nM (antagonist)

## Cc1ccc(-c2cc(-c3ccccc3)nc(N)c2C#N)cc1
[1]
  Ki: 274 nM (antagonist)
[2]
  Ki: 118 nM (antagonist)

## N#Cc1c(-c2ccc(Cl)cc2)cc(-c2ccccc2Cl)nc1N
[1]
  Ki: 1740 nM (antagonist)
[2]
  Ki: 403 nM (antagonist)

## N#Cc1c(-c2ccccc2Cl)cc(-c2ccccc2)nc1N
[1]
  Ki: 239 nM (antagonist)
[2]
  Ki: 89 nM (antagonist)

## CCOc1cc(-c2cc(-c3ccc(O)cc3)nc(N)c2C#N)ccc1O
[1]
  Ki: 42 nM (antagonist)
[2]
  Ki: 267 nM (antagonist)

## COc1cccc(-c2cc(C(F)(F)F)nc(NCc3ccc(F)cc3)n2)c1
[1]
  Ki: > 10000 nM
[2]
  Ki: 290 nM (antagonist)

## COc1ccc(-c2cccc(-c3nc(N)nc(SC)n3)c2)cn1
[1]
  Ki: 840 nM (antagonist)
[2]
  Ki: 23 nM (antagonist)

## Fc1ccc(CNc2nc(-c3ccc(Cl)cc3)cc(C(F)(F)F)n2)cc1
[1]
  Ki: > 10000 nM
[2]
  Ki: 454 nM (antagonist)

## N#Cc1c(-c2ccc(Cl)c(Cl)c2)cc(-c2cccnc2)nc1N
[1]
  Ki: > 10000 nM
[2]
  Ki: 210 nM (antagonist)

## N#Cc1c(N)nc2c(c1-c1ccc(F)cc1)CCC2
[2]
  Ki: 232 nM (antagonist)

## Fc1ccc(CNc2nc(-c3ccccc3)cc(C(F)(F)F)n2)cc1
[1]
  Ki: > 10000 nM
[2]
  Ki: 287 nM (antagonist)

## CCSc1nc(N)nc(-c2ccccc2)n1
[1]
  Ki: 67 nM (antagonist)
[2]
  Ki: 5 nM (antagonist)

## N#Cc1c(-c2ccc(F)cc2)cc(C2CC2)nc1N
[1]
  Ki: 865 nM (antagonist)
[2]
  Ki: 106 nM (antagonist)

## COc1cc(-c2cc(-c3ccc(O)cc3)nc(N)c2C#N)ccc1O
[1]
  Ki: 94 nM (antagonist)
[2]
  Ki: 151 nM (antagonist)

## CSc1nc(N)nc(-c2cccc(-c3ccc4[nH]ccc4c3)c2)n1
[1]
  Ki: 218 nM (antagonist)
[2]
  Ki: 31 nM (antagonist)

## Fc1ccc(CNc2nc(-c3cccs3)cc(C(F)(F)F)n2)cc1
[1]
  Ki: > 10000 nM
[2]
  Ki: 287 nM (antagonist)

## N#Cc1c(-c2ccc(Cl)cc2)cc(-c2ccccc2)nc1N
[1]
  Ki: 192 nM (antagonist)
[2]
  Ki: 201 nM (antagonist)
